From PMC11024357 (Frontiers in Pharmacology, 2024)
Where two headings read alike, the source gives them in different places. Values belong to the compound of their own block, whether it stands above or below them.

Tests used:
[1] = Tacrolimus blood pharmacokinetics without and with omeprazole 20 mg or famotidine 20 mg in kidney transplant patients (CMIA, non-compartmental analysis); format: in vivo, human; details: for Effect of single 20 mg co-administration on tacrolimus pharmacokinetic parameters: kidney transplant patients, day 2 vs day 1; for the mean C0/D ratio: pre-dose concentration / daily dose; for C0h, Q1: first quartile; for C0h, Q2: median; for C0h, Q3: third quartile; for concentration at 2 h / concentration at 6 h / AUC(0-t) / Cmax / AUC: human, whole blood, oral; for concentration at 2 h: read-out: C2; for concentration at 6 h: read-out: C6; for AUC(0-t): read-out: AUC0-6; for AUC: read-out: AUC2-6
Description: The study, randomized, non-blinded, comprised 24 stabilized adult patients between 1–12 months after kidney transplantation (NCT05061303), who received a kidney from a deceased donor. Inclusion criteria were time since kidney transplantation (1–12 months after kidney transplantation) and standard immunosuppressive regimen (tacrolimus, mycophenolate mofetil, prednisone/methylprednisolone/deflazacort). In this group, 2 individuals withdrew their informed consent and were excluded from study. Each randomized patient was admitted to the Department of Nephrology, Transplantology and Internal Diseases of Poznan University of Medical Sciences for 2 days (48 h). The study used the simple randomization method. One of the authors of the study (no the principal researcher) generated a randomized sequence for assigning patients to groups. The random component (computer-generated random numbers) was used in the sequence generation process. Figure 1 presented CONSORT flow chart. No participant changed the group during the study. Standard laboratory tests (creatinine, estimated glomerular filtration rate (eGFR), complete blood count, proteinuria, erythrocyturia) were performed during the first 2 days of participation in the study. In addition, the glomerular filtration rate (GFR) was calculated for each patient using The Chronic Kidney Disease Epidemiology Collaboration (CKD-EPI) creatinine equation to estimate GFR. […] Patients received tacrolimus once daily in the form of tacrolimus monohydrate prolonged-release tablets (Envarsus®, Chiesi Farmaceutici), registration numbers: EU/1/14/935/00, EU/1/14/935/004, EU/1/14/935/006, EU/1/14/935/007 or in the form of tacrolimus monohydrate prolonged-release hard capsules (Advagraf®, Astellas Pharma Europe), registration numbers: EU/1/07/387/001, EU/1/07/387/003, EU/1/07/387/011, EU/1/07/387/007. […] All patients before the start of the study achieved tacrolimus steady state. […] The results were used to obtain the values of pharmacokinetic parameters and statistical evaluation. No study-related adverse events were reported by patients, physicians, medical staff, or others during the study.
In order to establish the tacrolimus metabolism rate in the patients, the blood concentration normalized by the dose (C/D ratio) was calculated. The C0/D ratio can be calculated by dividing the tacrolimus pre-dose concentration (C0) by the corresponding daily tacrolimus dose (D). […] The fast metabolizers group included patients with a C/D ratio of <1.05 ng/mL*1/mg, whereas if the aforementioned ratio was ≥1.55 ng/mL*1/mg, the participants were described as slow metabolizers ([Tholking et al., 2014]).
Tacrolimus concentrations were determined using CMIA, by means of Alinity i analyser ([Mei et al., 2018]). Samples were stored frozen (−10°C or below) for no longer than 6 months. Each sample was thoroughly mixed prior to determining concentration, and 200 μL of each sample was pipetted into a centrifuge tube. Subsequently, the dispenser was filled with the appropriate volume of […] Tacrolimus Whole Blood Precipitation Reagent, followed by the removal of air bubbles from the dispenser. 200 μL of […] Tacrolimus Whole Blood Precipitation Reagent was added to the contents of the first centrifuge tube. Each individual tube was capped, mixed immediately after adding the reagent and centrifuged for 5–10 s. The tubes were then centrifuged again for 4 min. Each tube was uncapped and the supernatant was decanted (poured off) into a Graft Pre-Treatment Tube. They were then vortexed for 5–10 s and assayed for the concentrations of tacrolimus.
Calibration was performed in duplicate samples by testing Calibrators A, B, C, D, E and F. Control samples were prepared by mixing 150 μL of the patient sample and 150 μL of […] Tacrolimus Calibrator A. One sample for each control level was tested once every 24 h as a quality control test. […]

[2] = set-up: method as in Summary of Product Characteristics; details: ref Summary of Product Characteristics; cited from earlier work
[3] = no reference given; cited from earlier work
[4] = set-up: method as in Takahashi et al., 2007; details: ref Takahashi et al., 2007, cited from earlier work
[5] = 2012, cited from earlier work
[6] = set-up: method as in Susal and Dohler, 2019; details: ref Susal and Dohler, 2019, cited from earlier work
[7] = 0.0376 mg/kg, group II, no FA (day 1)
[8] = 0.0611 mg/kg, group I, no OM (day 1)
[9] = 20 mg, group II, FA 20 mg (day 2)
[10] = with omeprazole 20 mg (day 2) vs no omeprazole (day 1)

Effect of single 20 mg co-administration on tacrolimus pharmacokinetic parameters [1]: no significant changes
Compound: NC(N)=Nc1nc(CSCCC(N)=NS(N)(=O)=O)cs1 [famotidine]

Compound: COc1ccc2[nH]c([S+]([O-])Cc3ncc(C)c(OC)c3C)nc2c1 (stereo not shown) [omeprazole]
Effect of single 20 mg co-administration on tacrolimus pharmacokinetic parameters [1]: significantly increases blood exposure of tacrolimus | elimination half-life in the body [2]: shorter than an hour | bound to plasma proteins [3]: approximately 95%

the mean C0/D ratio ([1]; Group I (omeprazole group), mean ± SD): 2.02 ± 1.14 ng/mL*1/mg | the mean C0/D ratio ([1]; Group II (famotidine group), mean ± SD): 2.49 ± 0.76 ng/mL*1/mg | C2 ([1]; group I, 2 h, OM 20 mg (day 2)): 11.90 ± 5.03 ng/mL | AUC 0–6 normalized by the dose ([1]; group I, OM 20 mg (day 2)): 1308.01 ± 595.19 (ng × h/mL)/(mg/kg) | AUC 2–6 normalized by the dose ([1]; group I, OM 20 mg (day 2)): 939.13 ± 453.89 (ng × h/mL)/(mg/kg) | AUC0-6 ([1]; group I, no OM (day 1)): 54.23 ± 10.48 ng·h/mL | AUC 2–6 normalized by the dose ([1]; group I, no OM (day 1)): 832.98 ± 415.81 (ng × h/mL)/(mg/kg) | AUC 0–6 normalized by the dose ([1]; group II, FA 20 mg (day 2)): 1784.71 ± 447.89 (ng × h/mL)/(mg/kg) | AUC2-6 ([1]; group II, FA 20 mg (day 2)): 44.05 ± 11.28 ng·h/mL | AUC 2–6 normalized by the dose ([1]; group II, FA 20 mg (day 2)): 1268.57 ± 329.31 (ng × h/mL)/(mg/kg) | C0h, Q1 ([1]; group II, FA 20 mg (day 2)): Q1: 5.60 ng/mL | C0h, Q2 ([1]; group II, FA 20 mg (day 2)): Q2: 7.30 ng/mL | C0h, Q3 ([1]; group II, FA 20 mg (day 2)): Q3: 7.95 ng/mL | AUC 0–6 normalized by the dose ([1]; group II, no FA (day 1)): 1677.84 ± 358.32 (ng × h/mL)/(mg/kg) | AUC 2–6 normalized by the dose ([1]; group II, no FA (day 1)): 1196.79 ± 279.50 (ng × h/mL)/(mg/kg) | C0h, Q1 ([1]; group II, no FA (day 1)): Q1: 5.25 ng/mL | C0h, Q2 ([1]; group II, no FA (day 1)): Q2: 6.50 ng/mL | C0h, Q3 ([1]; group II, no FA (day 1)): Q3: 8.80 ng/mL | concentration at 2 h ([1]; 0.0376 mg/kg, group II, 2 h, no FA (day 1)): 10.3 ± 4.64 ng/mL | concentration at 6 h [1, 7]: 10.8 ± 3.16 ng/mL | AUC(0-t) [1, 7]: 59.1 ± 16.6 ng·h/mL | concentration at 2 h ([1]; 0.0611 mg/kg, group I, 2 h, no OM (day 1)): 9.4 ± 2.5 ng/mL | concentration at 6 h [1, 8]: 9.94 ± 3.03 ng/mL | Cmax ([1]; 0.0611 mg/kg, group I, no OM (day 1), mean ± SD): 11.2 ± 2.34 ng/mL | AUC [1, 8]: 38.7 ± 7.7 ng·h/mL | Cmax ([1]; 20 mg, group I, OM 20 mg (day 2), mean ± SD): 13.1 ± 4.3 ng/mL | AUC(0-t) ([1]; 20 mg, group I, OM 20 mg (day 2)): 63.1 ± 19.5 ng·h/mL | Cmax [1, 9]: 13.1 ± 4.17 ng/mL | AUC(0-t) [1, 9]: 62.1 ± 15.9 ng·h/mL | concentration at 2 h ([1]; group I, 2 h, OM 20 mg (day 2)): 11.9 ± 1.59 ng/mL | concentration at 2 h ([1]; group I, 2 h, no OM (day 1)): 9.4 ± 0.79 ng/mL | concentration at 6 h ([1]; group I, OM 20 mg (day 2)): 10.3 ± 1.99 ng/mL | concentration at 2 h ([1]; group II, 2 h, FA 20 mg (day 2)): 11 ± 4.27 ng/mL | concentration at 6 h ([1]; group II, FA 20 mg (day 2)): 11 ± 3.53 ng/mL | AUC ([1]; group I, OM 20 mg (day 2)): 44.3 ± 11.5 ng·h/mL | Cmax ([1]; group II, no FA (day 1)): 12.7 ± 4.39 ng/mL | AUC ([1]; group II, no FA (day 1)): 42 ± 11.5 ng·h/mL | Increase of tacrolimus AUC0-6 [1, 10]: 16.30% | Increase of tacrolimus AUC0-6 normalized by the dose [1, 10]: 12.88% | Increase of tacrolimus AUC2-6 [1, 10]: 14.58% | Increase of tacrolimus AUC2-6 normalized by the dose [1, 10]: 12.74% | Increase of tacrolimus C2h [1, 10]: 26.60%
Compound: C=CC[C@@H]1/C=C(\C)C[C@H](C)C[C@H](OC)[C@H]2O[C@@](O)(C(=O)C(=O)N3CCCC[C@H]3C(=O)O[C@H](/C(C)=C/[C@@H]3CC[C@@H](O)[C@H](OC)C3)[C@H](C)[C@@H](O)CC1=O)[C@H](C)C[C@@H]2OC [tacrolimus]
blood concentrations of tacrolimus ([4]; after switching omeprazole to oral rabeprazole 10 mg/day (day 21)): approximately 10 ng/mL | tacrolimus trough levels ([4]; on omeprazole, despite dose reductions from 17 to 9 mg/day): above 15 ng/mL | trough concentration of tacrolimus ([4]; post-transplant day 17, daily oral dose 17 mg, on ranitidine): 12.5 ng/mL | tacrolimus trough levels ([4]; post-transplant day 19, after start of intravenous omeprazole on day 18): 30.0 ng/mL | increase in tacrolimus concentrations after omeprazole administration ([5]; kidney transplant patient, ref Zhao WFM. et al.): more than four-fold increase | tacrolimus blood trough level (C0) ([5]; postoperative day 3, 9 mg twice daily, before omeprazole, ref Zhao W. et al.): 19.6 ng/mL | tacrolimus blood trough level (C0) ([5]; postoperative day 4, 9 mg twice daily, before omeprazole, ref Zhao W. et al.): 29.2 ng/mL | serum creatinine (acute nephrotoxicity) ([5]; postoperative day 6, at tacrolimus C0 92 ng/mL with omeprazole, ref Zhao W. et al.): 160 µM | tacrolimus blood trough level (C0) ([5]; postoperative day 6, dose reduced to 7 mg, omeprazole given on day 5, ref Zhao W. et al.): 92 ng/mL | 6-year survival of the kidney graft ([6]; tacrolimus C0 4.0–4.9 ng/mL): 86.5% | 6-year survival of the kidney graft ([6]; tacrolimus C0 5.0–6.9 ng/mL in the first 3 years after transplantation): over 88% | 6-year survival of the kidney graft ([6]; tacrolimus C0 7.0–8.9 ng/mL in the first 3 years after transplantation): over 88% | 6-year survival of the kidney graft ([6]; tacrolimus C0 <4 ng/mL): 82.6% | 6-year survival of the kidney graft ([6]; tacrolimus C0 ≥9 ng/mL): 87.5% | bound to plasma proteins [3]: approximately 99%
